The target of one assay is NAMPT (Homo sapiens, UniProt P43490). Kind of assay: Time-Resolved Fluorescence Resonance Energy Transfer (TR-FRET) Binding Assay of NAMPT with PRPP. The following applies: 200 μM PRPP and 2.5 mM ATP; 2 nM NAMPT, 2 nM probe, equilibrated 16 hours. An outline of the steps:
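Compounds were equilibrated for 16 hours before TR-FRET readout, with substrates present (200 μM PRPP, 2.5 mM ATP) to permit enzymatic modification. Final mix: 2 nM His-tagged NAMPT, 2 nM probe, 1 nM Tb-anti-His antibody, 2% DMSO.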

The target of assay [1] is NAMPT (human, recombinant, C-terminally His-tagged) (Homo sapiens, UniProt P43490). The experiment in a line: Time-Resolved Fluorescence Resonance Energy Transfer (TR-FRET) Binding Assay of NAMPT. The following applies: absence of substrates; 6.8 nM NAMPT, 200 nM probe, equilibrated 3 hours. In a few lines:
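Compounds (typically 11 half-log dilutions, 2% DMSO final) equilibrated 3 h at room temperature with 6.8 nM human C-His NAMPT, 1 nM Tb-anti-His antibody and 200 nM fluorescent competitive probe in pH 7.5 HEPES buffer. IC50 derived by logistic fit of normalized TR-FRET ratio (520/495 nm).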
Background: In TR-FRET formats the signal depends on donor and acceptor labels being close together.

Chain of NAMPT (P43490 whole entry): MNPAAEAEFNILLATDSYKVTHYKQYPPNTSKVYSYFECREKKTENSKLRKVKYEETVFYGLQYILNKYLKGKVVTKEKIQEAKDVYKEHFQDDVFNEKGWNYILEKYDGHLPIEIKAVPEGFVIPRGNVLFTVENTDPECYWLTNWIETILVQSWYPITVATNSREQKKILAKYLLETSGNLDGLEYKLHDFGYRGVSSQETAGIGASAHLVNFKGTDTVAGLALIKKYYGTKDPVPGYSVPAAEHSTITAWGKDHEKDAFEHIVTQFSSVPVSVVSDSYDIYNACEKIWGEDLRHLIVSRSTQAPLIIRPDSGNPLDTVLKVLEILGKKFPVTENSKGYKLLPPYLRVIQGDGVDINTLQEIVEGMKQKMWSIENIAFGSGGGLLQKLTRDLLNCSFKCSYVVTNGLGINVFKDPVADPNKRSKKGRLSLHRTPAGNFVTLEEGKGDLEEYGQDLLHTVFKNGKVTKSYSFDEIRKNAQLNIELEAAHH
Chain of NAMPT (human, recombinant, C-terminally His-tagged) (P43490 whole entry): as above

The term IC50 denotes the concentration that gives 50% inhibition. As for `CCOCCNC(=O)N(Cc1ccc(F)cc1)c1ncc(C(=O)NCCCn2ccnc2)s1` [Example 83, 2-{[(2-ethoxyethyl)carbamoyl](4-fluorobenzyl)amino}-N-[3-(1H-imidazol-1-yl)propyl]-1,3-thiazole-5-carboxamide], the half-inhibitory concentration (IC50) was found to be 0.998 nM at NAMPT and 2890 nM in assay [1].

As for `CCC(COC)NC(=O)N(Cc1ccc(F)cc1)c1ncc(C(=O)NCCCn2ccnc2)s1` (stereo not drawn) [Example 84, 2-{(4-fluorobenzyl)[(1-methoxybutan-2-yl)carbamoyl]amino}-N-[3-(1H-imidazol-1-yl)propyl]-1,3-thiazole-5-carboxamide], the concentration for half-maximal inhibition (IC50) at NAMPT was determined as 1.72 nM; in assay [1] it was 3200 nM.

Regarding `O=C(NCCCn1ccnc1)c1cnc(N(Cc2ccc(F)cc2)C(=O)NCC2OCCO2)s1` [Example 86, 2-{[(1,3-dioxolan-2-ylmethyl)carbamoyl](4-fluorobenzyl)amino}-N-[3-(1H-imidazol-1-yl)propyl]-1,3-thiazole-5-carboxamide], the IC50 is 2.66 nM at NAMPT and greater than 10000 nM in assay [1].

In the case of `CC(C)OCCNC(=O)N(Cc1ccc(F)cc1)c1ncc(C(=O)NCCCn2ccnc2)s1` [Example 87, 2-[(4-fluorobenzyl){[2-(propan-2-yloxy)ethyl]carbamoyl}amino]-N-[3-(1H-imidazol-1-yl)propyl]-1,3-thiazole-5-carboxamide], the IC50 was 1.26 nM on NAMPT and 2260 nM in assay [1].

Regarding `O=C(NCCCn1ccnc1)c1cnc(N(Cc2ccc(F)cc2)C(=O)NCC2COCCO2)s1` (stereo not drawn) [Example 88, 2-{[(1,4-dioxan-2-ylmethyl)carbamoyl](4-fluorobenzyl)amino}-N-[3-(1H-imidazol-1-yl)propyl]-1,3-thiazole-5-carboxamide], the IC50 was 0.602 nM on NAMPT and greater than 10000 nM in assay [1].

Take `COCC(COC)NC(=O)N(Cc1ccc(F)cc1)c1ncc(C(=O)NCCCn2ccnc2)s1` [Example 89, 2-{[(1,3-dimethoxypropan-2-yl)carbamoyl](4-fluorobenzyl)amino}-N-[3-(1H-imidazol-1-yl)propyl]-1,3-thiazole-5-carboxamide]: the IC50 at NAMPT was found to be 1.98 nM; in assay [1], 5830 nM.

Take `CCC(CNC(=O)N(Cc1ccc(F)cc1)c1ncc(C(=O)NCCCn2ccnc2)s1)OC` (stereo not drawn) [Example 90, 2-{(4-fluorobenzyl)[(2-methoxybutyl)carbamoyl]amino}-N-[3-(1H-imidazol-1-yl)propyl]-1,3-thiazole-5-carboxamide]: the IC50 at NAMPT was 2.25 nM; in assay [1], greater than 10000 nM.

With `O=C(NCCCn1ccnc1)c1cnc(N(Cc2ccc(F)cc2)C(=O)NC2CCOC2)s1` (stereo not drawn) [Example 91, 2-[(4-fluorobenzyl)(tetrahydrofuran-3-ylcarbamoyl)amino]-N-[3-(1H-imidazol-1-yl)propyl]-1,3-thiazole-5-carboxamide], the IC50 worked out at 0.543 nM at NAMPT and 8690 nM in assay [1].

As for `O=C(NCCCn1ccnc1)c1cnc(N(Cc2ccc(F)cc2)C(=O)NC2CCCOC2)s1` (stereo not drawn) [Example 92, 2-[(4-fluorobenzyl)(tetrahydro-2H-pyran-3-ylcarbamoyl)amino]-N-[3-(1H-imidazol-1-yl)propyl]-1,3-thiazole-5-carboxamide], the IC50 was 0.868 nM at NAMPT and greater than 10000 nM in assay [1].

Regarding `COCCC(=O)N(Cc1ncccn1)c1ncc(C(=O)NCCCn2ccnc2)s1` [Example 93, N-[3-(1H-imidazol-1-yl)propyl]-2-[(3-methoxypropanoyl)(pyrimidin-2-ylmethyl)amino]-1,3-thiazole-5-carboxamide], the IC50 on NAMPT was 16.6 nM; in assay [1], greater than 10000 nM.

In the case of `COCCC(=O)N(Cc1ccnc(OC)c1)c1ncc(C(=O)NCCCn2ccnc2)s1` [Example 94, N-[3-(1H-imidazol-1-yl)propyl]-2-{(3-methoxypropanoyl)[(2-methoxypyridin-4-yl)methyl]amino}-1,3-thiazole-5-carboxamide], the results for the IC50 (on NAMPT; in assay [1]) were 1.22 nM and 2870 nM, respectively.

Turning to `COCCC(=O)N(Cc1cocn1)c1ncc(C(=O)NCCCn2ccnc2)s1` [Example 95, N-[3-(1H-imidazol-1-yl)propyl]-2-[(3-methoxypropanoyl)(1,3-oxazol-4-ylmethyl)amino]-1,3-thiazole-5-carboxamide], the IC50 at NAMPT came out at 15.1 nM; in assay [1], 3890 nM.

Take `COCCC(=O)N(Cc1ccc(Cl)cn1)c1ncc(C(=O)NCCCn2ccnc2)s1` [Example 96, 2-{[(5-chloropyridin-2-yl)methyl](3-methoxypropanoyl)amino}-N-[3-(1H-imidazol-1-yl)propyl]-1,3-thiazole-5-carboxamide]: the figures for the IC50 (on NAMPT; in assay [1]) were 3.35 nM and 4190 nM, respectively.

Turning to `COCCC(=O)N(Cc1cnccc1C)c1ncc(C(=O)NCCCn2ccnc2)s1` [Example 97, N-[3-(1H-imidazol-1-yl)propyl]-2-{(3-methoxypropanoyl)[(4-methylpyridin-3-yl)methyl]amino}-1,3-thiazole-5-carboxamide], the IC50 was 5.89 nM on NAMPT and greater than 10000 nM in assay [1].

On to `COCCC(=O)N(Cc1ccc(OC)nc1)c1ncc(C(=O)NCCCn2ccnc2)s1` [Example 98, N-[3-(1H-imidazol-1-yl)propyl]-2-{(3-methoxypropanoyl)[(6-methoxypyridin-3-yl)methyl]amino}-1,3-thiazole-5-carboxamide], for which the IC50 at NAMPT was found to be 1.47 nM; in assay [1] it was 1500 nM.

Regarding `COCCC(=O)N(Cc1scnc1C)c1ncc(C(=O)NCCCn2ccnc2)s1` [Example 99, N-[3-(1H-imidazol-1-yl)propyl]-2-{(3-methoxypropanoyl)[(4-methyl-1,3-thiazol-5-yl)methyl]amino}-1,3-thiazole-5-carboxamide], the IC50 on NAMPT is 1.5 nM; in assay [1], 3560 nM.

As to `COCCC(=O)N(CCc1ccccn1)c1ncc(C(=O)NCCCn2ccnc2)s1` [Example 101, N-[3-(1H-imidazol-1-yl)propyl]-2-{(3-methoxypropanoyl)[2-(pyridin-2-yl)ethyl]amino}-1,3-thiazole-5-carboxamide acetate (1:1)], the IC50 on NAMPT was determined as 2.84 nM; in assay [1], 5620 nM.

Take `COCCC(=O)N(CCc1ccc2c(c1)OCO2)c1ncc(C(=O)NCCCn2ccnc2)s1` [Example 102, 2-{[2-(1,3-benzodioxol-5-yl)ethyl](3-methoxypropanoyl)amino}-N-[3-(1H-imidazol-1-yl)propyl]-1,3-thiazole-5-carboxamide acetate (1:1)]: the IC50 on NAMPT was 2.16 nM; in assay [1], 306 nM.

Turning to `COCCC(=O)N(CCc1ccc(Cl)cc1)c1ncc(C(=O)NCCCn2ccnc2)s1` [Example 103, 2-{[2-(4-chlorophenyl)ethyl](3-methoxypropanoyl)amino}-N-[3-(1H-imidazol-1-yl)propyl]-1,3-thiazole-5-carboxamide acetate (1:1)], the values for the IC50 (on NAMPT; in assay [1]) were 3.06 nM and 709 nM, respectively.

Take `COCCC(=O)N(CCc1cccc(F)c1)c1ncc(C(=O)NCCCn2ccnc2)s1` [Example 104, 2-{[2-(3-fluorophenyl)ethyl](3-methoxypropanoyl)amino}-N-[3-(1H-imidazol-1-yl)propyl]-1,3-thiazole-5-carboxamide acetate (1:1)]: the values for the IC50 (on NAMPT; in assay [1]) were 1.31 nM and 445 nM, respectively.

With `COCCC(=O)N(CCc1cccc(Cl)c1)c1ncc(C(=O)NCCCn2ccnc2)s1` [Example 106, 2-{[2-(3-chlorophenyl)ethyl](3-methoxypropanoyl)amino}-N-[3-(1H-imidazol-1-yl)propyl]-1,3-thiazole-5-carboxamide acetate (1:1)], the IC50 was found to be 1.8 nM on NAMPT and 1930 nM in assay [1].

Values taken from patent publication US9334264B2, “NAMPT inhibitors” (AbbVie Inc., priority 2012, dated 2016).
